# Test results published in patent US7399869B2, “Fibroblast activation protein inhibitor compounds and methods” (Genentech, Inc., priority 2005, dated 2008).
# What was measured:
# Format in all cases: biochemical
# DPP-7 = target: T1, DPP-7 (Homo sapiens, UniProt Q9UHL4); assay: Relative cleavage of unblocked and N-blocked Gly-Pro-AFC by DPP-7; conditions: protease DPP-7; unblocked vs N-blocked substrate
# T1 construct: These constructs encoded amino acids 26-492 of DPP-7; FLAG (N); made in house; host or cells: 293 cells; template plasmid from Origene
# Procedure: (§1) The relative cleavage rates by FAP and several dipeptidases of N-blocked (8) and unblocked (7) Gly-Pro dipeptide substrates were measured.
# (§2) Protease Assays—Protease activity was monitored continuously using a SpectraMax M2 microplate reader (Molecular Devices Corp., Sunnyvale Calif.) in the kinetic mode. Assays were conducted at 23° C. in 50 mM Tris (pH 7.4), 100 mM NaCl, 1 mM EDTA. The excitation/emission wavelengths for the different fluorogenic substrates were 360/460 nm (AMC), 400/505 nm (AFC), 340/425 nm (MNA), 340/510 nm (EDANS), and 337/425 nm (Abs). Standard curves of the appropriate fluorescent product versus concentration were used to convert relative fluorescence units to nmol of product produced. Substrates in the X-Pro-AMC library were used in rate assays at 5 μM final concentration. […] The kinetic parameters were calculated from Michaelis-Menten plots (V0 versus [S]) with nonlinear regression analysis using GraphPad software. kcat values were calculated under the assumption that each protease was 100% active.
# DPP-8 = target: T2, DPP-8 (Homo sapiens, UniProt Q6V1X1); assay: Relative cleavage of unblocked and N-blocked Gly-Pro-AFC by DPP-8; conditions: protease DPP-8; unblocked vs N-blocked substrate
# T2 construct: 2-883 of DPP-8; FLAG (N); made in house; host or cells: 293 cells; template plasmid from Origene
# T2 sequence (Q6V1X1 18-898 limits assumed): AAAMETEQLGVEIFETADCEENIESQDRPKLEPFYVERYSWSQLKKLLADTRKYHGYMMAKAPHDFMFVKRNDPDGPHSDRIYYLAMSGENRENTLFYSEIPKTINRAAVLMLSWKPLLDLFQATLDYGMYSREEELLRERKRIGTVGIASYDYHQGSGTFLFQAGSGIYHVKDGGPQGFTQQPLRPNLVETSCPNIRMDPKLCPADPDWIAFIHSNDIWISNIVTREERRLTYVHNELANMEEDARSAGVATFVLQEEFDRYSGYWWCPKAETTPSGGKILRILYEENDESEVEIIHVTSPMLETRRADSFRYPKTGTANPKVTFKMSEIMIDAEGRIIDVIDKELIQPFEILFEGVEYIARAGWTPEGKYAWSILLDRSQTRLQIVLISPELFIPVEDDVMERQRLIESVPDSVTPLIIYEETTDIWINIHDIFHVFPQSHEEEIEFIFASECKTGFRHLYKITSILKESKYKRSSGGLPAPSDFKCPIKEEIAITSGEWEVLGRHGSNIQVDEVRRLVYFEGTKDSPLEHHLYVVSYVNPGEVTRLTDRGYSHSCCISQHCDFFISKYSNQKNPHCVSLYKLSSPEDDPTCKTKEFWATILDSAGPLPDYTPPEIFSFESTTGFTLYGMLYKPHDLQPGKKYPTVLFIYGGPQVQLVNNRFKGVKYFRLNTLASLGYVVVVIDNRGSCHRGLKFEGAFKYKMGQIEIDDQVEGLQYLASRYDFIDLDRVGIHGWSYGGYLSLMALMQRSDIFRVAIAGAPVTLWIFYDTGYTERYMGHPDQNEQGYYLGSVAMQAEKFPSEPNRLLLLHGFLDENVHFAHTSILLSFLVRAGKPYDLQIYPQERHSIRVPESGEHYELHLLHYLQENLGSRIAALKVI
# Procedure: as §1, §2
# DPP-9 = target: T3, DPP-9 (Homo sapiens, UniProt Q86TI2); assay: Relative cleavage of unblocked and N-blocked Gly-Pro-AFC by DPP-9; conditions: protease DPP-9; unblocked vs N-blocked substrate
# T3 construct: 2-864 of DPP-9; FLAG (N); made in house; host or cells: 293 cells; template plasmid from Origene
# T3 sequence (Q86TI2 2-863 limits assumed): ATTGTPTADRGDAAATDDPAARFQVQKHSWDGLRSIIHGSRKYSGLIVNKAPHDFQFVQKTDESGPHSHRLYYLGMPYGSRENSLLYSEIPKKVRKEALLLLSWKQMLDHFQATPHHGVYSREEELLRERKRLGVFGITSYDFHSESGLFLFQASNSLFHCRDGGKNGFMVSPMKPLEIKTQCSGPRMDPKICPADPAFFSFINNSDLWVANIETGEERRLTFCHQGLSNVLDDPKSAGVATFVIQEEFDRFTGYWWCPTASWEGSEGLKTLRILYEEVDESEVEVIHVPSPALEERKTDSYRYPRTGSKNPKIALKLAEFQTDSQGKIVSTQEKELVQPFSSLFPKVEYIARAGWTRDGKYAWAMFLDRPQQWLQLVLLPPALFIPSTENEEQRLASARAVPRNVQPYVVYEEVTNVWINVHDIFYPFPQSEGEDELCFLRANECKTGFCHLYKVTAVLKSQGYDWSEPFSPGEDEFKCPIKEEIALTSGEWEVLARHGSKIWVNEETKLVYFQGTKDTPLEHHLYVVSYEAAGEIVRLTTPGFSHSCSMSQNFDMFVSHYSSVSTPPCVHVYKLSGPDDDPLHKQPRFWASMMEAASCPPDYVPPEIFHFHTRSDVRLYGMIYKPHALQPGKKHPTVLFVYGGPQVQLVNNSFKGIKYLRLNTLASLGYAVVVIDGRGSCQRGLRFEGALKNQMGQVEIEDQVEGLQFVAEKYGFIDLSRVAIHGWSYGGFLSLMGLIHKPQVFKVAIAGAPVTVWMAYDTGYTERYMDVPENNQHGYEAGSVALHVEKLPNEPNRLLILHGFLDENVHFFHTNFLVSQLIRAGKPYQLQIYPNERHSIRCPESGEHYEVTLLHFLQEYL
# Procedure: as §1, §2
# APH = target: T4, APH (Homo sapiens, UniProt P13798); assay: Relative cleavage of unblocked and N-blocked Gly-Pro-AFC by APH; conditions: protease APH; unblocked vs N-blocked substrate
# T4 construct: 2-732 of APH; FLAG (N); made in house; host or cells: 293 cells; template plasmid from Origene
# T4 sequence (P13798 2-732): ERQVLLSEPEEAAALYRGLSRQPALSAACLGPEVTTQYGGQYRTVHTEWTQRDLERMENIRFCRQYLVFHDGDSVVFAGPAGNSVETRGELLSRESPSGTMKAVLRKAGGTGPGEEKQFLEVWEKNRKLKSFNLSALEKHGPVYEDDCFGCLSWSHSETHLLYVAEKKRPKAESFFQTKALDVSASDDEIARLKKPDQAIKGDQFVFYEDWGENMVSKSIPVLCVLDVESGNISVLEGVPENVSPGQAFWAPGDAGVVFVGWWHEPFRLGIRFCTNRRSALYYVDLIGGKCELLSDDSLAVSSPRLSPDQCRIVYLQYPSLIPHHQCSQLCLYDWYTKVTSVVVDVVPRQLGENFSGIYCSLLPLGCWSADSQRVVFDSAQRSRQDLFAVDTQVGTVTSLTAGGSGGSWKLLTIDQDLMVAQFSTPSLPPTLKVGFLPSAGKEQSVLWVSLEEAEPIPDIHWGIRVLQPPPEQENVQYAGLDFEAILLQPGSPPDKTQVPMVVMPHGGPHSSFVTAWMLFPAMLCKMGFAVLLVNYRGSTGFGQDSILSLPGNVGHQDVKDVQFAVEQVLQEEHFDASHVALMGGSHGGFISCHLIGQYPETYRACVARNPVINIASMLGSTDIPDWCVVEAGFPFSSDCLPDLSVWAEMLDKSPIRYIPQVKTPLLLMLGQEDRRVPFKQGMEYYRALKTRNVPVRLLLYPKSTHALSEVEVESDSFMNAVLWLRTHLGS
# Procedure: as §1, §2
# FAP = target: T5, FAP (Homo sapiens, UniProt Q12884); assay: Hydrolysis of C-terminal coumarin dipeptide substrates by FAP (kinetic constants); set-up: FAP (amino acids 38-760); FLAG (N); made in house; host or cells: 293 cells (secreted, purified from serum-free conditioned media); conditions: protease FAP; unblocked vs N-blocked substrate
# T5 sequence (Q12884 38-760): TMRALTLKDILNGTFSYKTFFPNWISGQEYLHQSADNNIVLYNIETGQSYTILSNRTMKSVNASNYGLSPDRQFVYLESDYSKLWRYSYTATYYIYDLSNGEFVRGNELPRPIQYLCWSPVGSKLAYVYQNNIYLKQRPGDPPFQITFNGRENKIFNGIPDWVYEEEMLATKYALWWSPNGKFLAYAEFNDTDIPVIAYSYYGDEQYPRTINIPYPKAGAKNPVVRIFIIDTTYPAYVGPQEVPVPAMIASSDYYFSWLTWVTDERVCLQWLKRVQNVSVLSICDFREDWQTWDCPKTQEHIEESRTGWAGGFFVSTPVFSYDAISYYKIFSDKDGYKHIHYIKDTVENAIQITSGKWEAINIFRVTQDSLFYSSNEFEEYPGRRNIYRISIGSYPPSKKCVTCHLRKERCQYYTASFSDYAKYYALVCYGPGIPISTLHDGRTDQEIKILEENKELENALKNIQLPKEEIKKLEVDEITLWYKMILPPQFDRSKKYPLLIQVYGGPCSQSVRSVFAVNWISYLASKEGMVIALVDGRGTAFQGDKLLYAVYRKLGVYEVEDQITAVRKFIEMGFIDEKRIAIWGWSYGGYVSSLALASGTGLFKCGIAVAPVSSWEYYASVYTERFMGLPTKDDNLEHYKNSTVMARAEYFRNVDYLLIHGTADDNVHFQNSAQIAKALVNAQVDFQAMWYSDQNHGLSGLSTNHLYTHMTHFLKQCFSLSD
# Procedure: as §1
# (§3) The cleavage (hydrolysis) rates of various C-terminal coumarin dipeptide substrates 7-16 by FAP and DPP-4 were measured (Tables 4 and 5). The amino-terminus of the substrates was unblocked and the amino acids were varied in Table 4. The amino-terminus of the substrates was blocked and the amino acids were varied in Table 5. To extend the results obtained with the dipeptide substrate library, kinetic parameters were determined for cleavage of the unblocked dipeptide substrates by FAP (Table 4). The catalytic efficiency (kcat/Km) for substrate cleavage was greatest with Ile-Pro-AFC, followed by Ala-Pro-, Gly-Pro- and Phe-Pro-AFC, consistent with the dipeptide substrate library results (FIG. 5). […] Kinetic constants for cleavage of Ala-Pro-AFC and Gly-Pro-AFC by DPP-4 were determined (Table 4). The catalytic efficiency for Ala-Pro-AFC hydrolysis was greater than that for Gly-Pro-AFC, and consistent with the dipeptide library.
# as §2
# (§4) When saturating amounts of substrate could not be achieved, catalytic efficiencies (kcat/Km) were determined under pseudo-first order conditions ([S]<<the estimated Km) and fit to the following equation: Ln[St/S0]=−kobst, where St is the concentration of substrate remaining at time t, S0 is the initial substrate concentration and kobs is the apparent first order substrate cleavage constant equal to (kcat/Km) times ET, the total enzyme concentration (Copeland, R. (2000) Enzymes, A Practical Introduction to Structure, Mechanism, and Data Analysis, 2nd Ed., John Wiley and Sons, Inc, New York). The linear relationship of Ln[St/S0] versus time allows calculation of kcat/Km by dividing the slope of the plot by ET.
# DPP-4 = DPP-4 (Homo sapiens, UniProt P27487); assay: Hydrolysis of C-terminal coumarin dipeptide substrates by DPP-4 (kinetic constants); set-up: DPP-4 (amino acids 39-766); FLAG (N); made in house; host or cells: 293 cells (secreted, purified from serum-free conditioned media); conditions: protease DPP-4; unblocked vs N-blocked substrate
# Sequence of DPP-4 (P27487 39-766): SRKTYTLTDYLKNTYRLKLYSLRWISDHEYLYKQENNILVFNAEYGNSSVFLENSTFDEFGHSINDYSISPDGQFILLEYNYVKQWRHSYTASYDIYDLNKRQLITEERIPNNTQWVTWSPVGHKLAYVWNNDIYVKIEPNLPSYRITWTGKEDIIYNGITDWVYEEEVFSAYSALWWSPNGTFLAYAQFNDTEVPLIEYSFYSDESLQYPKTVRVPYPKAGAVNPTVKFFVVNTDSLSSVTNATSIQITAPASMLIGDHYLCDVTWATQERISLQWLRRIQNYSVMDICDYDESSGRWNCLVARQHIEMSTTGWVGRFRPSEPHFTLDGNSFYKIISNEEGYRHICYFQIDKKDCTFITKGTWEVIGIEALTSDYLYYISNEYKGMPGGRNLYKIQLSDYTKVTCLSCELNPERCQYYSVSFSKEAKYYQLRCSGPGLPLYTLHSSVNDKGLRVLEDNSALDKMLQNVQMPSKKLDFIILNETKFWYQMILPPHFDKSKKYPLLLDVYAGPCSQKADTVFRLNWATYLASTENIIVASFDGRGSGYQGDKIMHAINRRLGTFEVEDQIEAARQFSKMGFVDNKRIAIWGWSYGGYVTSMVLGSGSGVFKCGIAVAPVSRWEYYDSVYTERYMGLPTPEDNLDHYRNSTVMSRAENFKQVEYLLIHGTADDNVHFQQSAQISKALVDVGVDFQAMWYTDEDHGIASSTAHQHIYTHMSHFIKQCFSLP
# Procedure: as §1, §3, §2, §4
# POP = target: T6, POP (Homo sapiens, UniProt P48147); assay: Inhibition of POP by N-blocked boroPro compounds
# T6 construct: 2-710 of POP; FLAG (N); made in house; host or cells: 293 cells; template plasmid from Origene
# T6 sequence (P48147 2-710): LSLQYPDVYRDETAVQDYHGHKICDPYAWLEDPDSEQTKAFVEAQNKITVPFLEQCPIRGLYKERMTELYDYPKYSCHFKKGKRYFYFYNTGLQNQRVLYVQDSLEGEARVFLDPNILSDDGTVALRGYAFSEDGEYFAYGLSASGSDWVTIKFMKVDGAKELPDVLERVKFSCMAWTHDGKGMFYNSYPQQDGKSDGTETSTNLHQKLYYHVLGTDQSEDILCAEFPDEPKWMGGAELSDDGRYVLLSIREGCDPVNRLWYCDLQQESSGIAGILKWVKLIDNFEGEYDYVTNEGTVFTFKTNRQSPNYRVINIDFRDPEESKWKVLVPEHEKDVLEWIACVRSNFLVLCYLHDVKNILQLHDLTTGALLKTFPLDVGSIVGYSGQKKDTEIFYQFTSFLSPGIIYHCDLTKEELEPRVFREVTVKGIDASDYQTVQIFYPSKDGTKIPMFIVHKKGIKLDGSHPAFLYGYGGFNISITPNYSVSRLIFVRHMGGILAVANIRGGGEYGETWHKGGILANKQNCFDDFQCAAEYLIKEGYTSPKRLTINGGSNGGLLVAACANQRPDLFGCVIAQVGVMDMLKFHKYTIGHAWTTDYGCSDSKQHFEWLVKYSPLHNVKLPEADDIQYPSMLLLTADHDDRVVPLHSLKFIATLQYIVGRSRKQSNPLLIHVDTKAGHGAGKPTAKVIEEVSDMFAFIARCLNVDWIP
# Procedure: Briefly, proteases were added to a reaction mixture containing inhibitor and substrate (Ac-Ala-AMC for APH, Z-Gly-Pro-AMC for POP, and Ala-Pro-AFC for all others) in assay buffer at 23° C. Protease activity was followed continuously as described above to monitor time-dependent inhibition. Data were plotted as V0/Vi−1 versus [I], where V0 is the rate if substrate hydrolysis in the absence of inhibitor, Vi is the steady state rate of substrate hydrolysis in the presence of inhibitor and [I] is the concentration of Ac-Gly-BoroPro.
# KI values for inhibition of proteases by 5 were determined using the method of progress curves. Briefly, proteases (10-100 nM) were added to a reaction mixture containing inhibitor 5 (0-10 μM) and substrate AP-AFC in assay buffer at 23° C. […] Data were plotted as V0/Vi−1 versus [I], where V0 is the rate if substrate hydrolysis in the absence of inhibitor, Vi is the steady state rate of substrate hydrolysis in the presence of inhibitor and [I] is the concentration of 5. […] Ki, the true equilibrium inhibition constant was determined according to the following relationship: Ki=Kobs/(1+[S]/Km), where [S] is the concentration of substrate used in the assay and Km is the Michaelis constant for substrate cleavage.
# Plasmids encoding full-length proteases were obtained from Origene Technologies Inc., Rockville Md. […]
Relative Activity Gly-Pro-AFC 7/Ac-Gly-Pro-AFC 8 (DPP-7),Relative Activity Gly-Pro-AFC 7/Ac-Gly-Pro-AFC 8 (DPP-8),Relative Activity Gly-Pro-AFC 7/Ac-Gly-Pro-AFC 8 (DPP-9),Relative Activity Gly-Pro-AFC 7/Ac-Gly-Pro-AFC 8 (APH),Relative Activity Gly-Pro-AFC 7/Ac-Gly-Pro-AFC 8 (FAP),Relative Activity Gly-Pro-AFC 7/Ac-Gly-Pro-AFC 8 (DPP-4),Ki (POP) [nM],SMILES
200,33,"10,000",no cleavage,1.0,"10,000",–,"NCC(=O)N1CCCC1C(=O)Nc1ccc2c(C(F)(F)F)c(CC(N)=O)c(=O)oc2c1 (stereo not drawn) [Gly-Pro-AFC 7, Gly-Pro-AFC]"
–,–,–,–,–,–,63,CC(C)C(=O)N(C)CC(=O)N1CCCC1B(O)O (stereo not shown) [N-isobutyryl-sarcosyl-boroPro]
